{
  "source": "patent US9764031B2",
  "about": "(priority 2010, dated 2017)",
  "tested_on": "IL-12",
  "design": "species or system mice",
  "conditions": "mouse, in vivo",
  "data": [
    {"smiles": "CCOCc1nc2c(N)nc3ccccc3c2n1CC(C)(C)O", "note": "[R848, Resiquimod]", "values": [
      {"measurement": "peak level of systemic IL-12, free agonist higher than NC-coupled agonist", "value": 30, "unit": "fold"}
    ]}
  ]
}
